Test [1] deals with male Sprague-Dawley rats. Description: Reversal of persistent pain induced by formalin injection. The class given is in vivo. The settings on record: po, 2 h, dosed two hours prior to intraplantar formalin, rat.
In test [2] the test system is rats. Description: Reversal of L5/L6 nerve ligation induced tactile allodynia. The class given is in vivo, rat. The settings on record: 15 mg/kg orally, n=8, ±SEM. The method, then:
Unilateral ligation of nerves innervating the hind leg region will result in a chronic persistent pain manifested as tactile allodynia in rats. L5/L6 nerve ligation is performed (Kim et al. Pain (1992) 50, 355-363). Neuropathic injury is produced by tightly ligating the left L5 and L6 spinal nerves under gaseous anesthesia with a mixture of isoflurane (3% for induction and 2% for maintenance) and oxygen. After a minimum of 14 days after surgery, tactile allodynia is evaluated by measuring tactile sensitivity of the injured paw to von Frey filaments with incremental bending forces (0.3 to 15 g) (Chaplan et al. J. of Neuroscience Methods (1994) 53, 55-63). […] Baseline values are determined immediately prior to assessment of test compound. A test compound (prodrug) is orally dosed at 15 mg/kg and the tactile threshold for paw withdrawal is measured at 1, 2 and 4 hours post dosing. Data are expressed as response threshold in grams (g) and values are with standard errors of means (±SE mean) for each time point. Data are analyzed using an analysis of variance followed by a Dunnett's post hoc analysis and represent absolute change in pain threshold (Cmax=maximum Response Baseline) and expressed as Mean [log (maximum response)−log predose score)] (g).

Test [3] has as its system rats. Description: Reversal of CFA-induced mechanical hyperalgesia (Randall Sellito test). Type of test: in vivo, rat. The settings on record: mean ± SEM, p<0.05 vs vehicle. As to the method: Induction of local inflammation in the rat hind paw will cause a persistent mechanical hyperalgesia that can be measured by determining the threshold to pressure stimuli to give a painful response. The method for complete Freund's adjuvant (CFA) induced mechanical hyperalgesia in rats is largely described in Iadarola et al. Brain Res. (1988) 455, 205-212. Rats are placed under isoflurane anesthesia while the right paw is injected with 50 μl of CFA (Sigma C5881, 1 mg/ml mycobacterium extract in 85% paraffin oil, 15% mannide monooleate) intraplantar. Animals are allowed to recover in soft bedding cages and mechanical hyperalgesia changes measured 24 hours post-CFA injection. Mechanical hyperalgesia (Randall Sellito Test) is determined by gently restraining the rat and placing the paw between the plinth and pusher (Ugo Basile Analgesy-meter). The gram force when the animal withdraws the paw is recorded.
Rats are tested for baseline response prior to CFA injection. Post-CFA response is tested the next morning (about 24 hours post injection of CFA). Rats are randomized based on post-CFA response with any rat showing a score of >150 grams excluded from further testing. A test compound (prodrug) is orally dosed within a range of 1.5 to 15 mg/kg and mechanical threshold for paw withdrawal is measured at 1 and 2 hours post dosing. Statistical significance is defined as a p value <0.05 in an analysis of covariance followed by a Dunnett's post hoc test for each time point. Table 2 below provides the statistically significant results for Example 10 run substantially as above.

Test [4] concerns Male Sprague Dawley rats. Description: Reversal of colorectal distension-induced pain behaviors. Type of test: in vivo, rat. The settings on record: 90 minutes post dosing, mean ± SEM. The method, then: Visceral pain in rats can be induced by distension of the colorectal cavity and pain monitored by accessing the reflex contraction of abdominal muscles. Measurement of abdominal muscle reflex contractions with pain caused by colorectal distension in the rat is performed substantially as described by Fioramonti et al. Neurogastroenterology and Motility (2003) 15, 363-369 and Urban et al. J. of Pharmacology and Exp. Ther. (1999) 290, 207-213. Male Sprague Dawley rats are surgically implanted with electromyographic (EMG) electrodes in the oblique abdominal muscle and allowed to recover for one week, during which animals are acclimated to handling and partial restraint to minimize effects of stress. Baseline EMG measurements are collected and recorded after the insertion into the rectum (8 cm) of a lubricated latex balloon attached to a pressure monitor/regulator to step the pressure between 20, 40, and 60 mm Hg for a 20 second duration with a 3 minute resting period between trials. A set of three exposures at each pressure is recorded before stepping the pressure up to the next level. Data are collected as the area under the curve for EMG reading (volts per second) during the pressure stimulations, and averaged over the three trials. A test compound (prodrug) is orally dosed within a range of 1.5 to 17 mg/kg 90 minutes prior to the beginning of the colorectal distension. Statistical significance is defined as a p value <0.05 in an analysis of covariance followed by a Dunnett's post hoc test. Table 3 below provides the statistically significant results for Example 10 run substantially as above.

The record followed here is patent publication US8575214B2, “MGlu 2/3 agonists” (Eli Lilly and Company, priority 2012, dated 2013).

With `C[C@H](N)C(=O)N[C@@]1(C(=O)O)CC2(CC2)[C@H]2[C@H](C(=O)O)[C@H]21` [Example 10, (1S,2S,5R,6S)-2-[[(2S)-2-Aminopropanoyl]amino]spiro[bicyclo[3.1.0]hexane-4,1′-cyclopropane]-2,6-dicarboxylic acid dihydrate], in test [1], the ED50 (in general, the midpoint of the dose-response relation) amounted to 4.8 mg/kg. The “mechanical threshold (von Frey, paw withdrawal)” value in test [2] (four hours post dosing, vehicle 2.35±0.62) was determined as 8.63 ± 1.98 g; in test [2] (one hour post dosing, vehicle 1.50±0.60) it was 9.06 ± 2.26 g; in test [2] (two hours post dosing, vehicle 1.34±0.75) it was 12.31 ± 1.86 g. Also, the “Paw withdrawal Threshold” value was 180 ± 14 grams, force in test [3] (1.5 mg/kg po, one hour post dosing, group pre CFA 243 ± 5, 24 hours post CFA 113 ± 8); 186 ± 19 grams, force in test [3] (1.5 mg/kg po, two hours post dosing, group pre CFA 243 ± 5, 24 hours post CFA 113 ± 8); 153 ± 20 grams, force in test [3] (4.5 mg/kg po, one hour post dosing, group pre CFA 221 ± 10, 24 hours post CFA 114 ± 9); 221 ± 20 grams, force in test [3] (4.5 mg/kg po, two hours post dosing, group pre CFA 221 ± 10, 24 hours post CFA 114 ± 9); 250 ± 0 grams, force in test [3] (15 mg/kg po, one hour post dosing, group pre CFA 244 ± 4, 24 hours post CFA 108 ± 12, cut-off 250 grams); 232 ± 15 grams, force in test [3] (15 mg/kg po, two hours post dosing, group pre CFA 244 ± 4, 24 hours post CFA 108 ± 12). The “AUC of EMG reading for abdominal muscle with 60 mmHg colorectal pressure” value in test [4] (1.5 mg/kg po, pre-dosing baseline 853 ± 142, vehicle 849 ± 65) was determined as 618 ± 92 μV/sec; in test [4] (4.5 mg/kg po, pre-dosing baseline 887 ± 152, p<0.05 vs vehicle), 531 ± 99 μV/sec; in test [4] (17 mg/kg po, pre-dosing baseline 773 ± 134, p<0.05 vs vehicle) it was 266 ± 87 μV/sec.
